Columns and labels:
[1] = target: T1, Aurora kinase A (Homo sapiens) (UniProt O14965); test: Inhibition of human Aurora A using H-LRRASLG as substrate at 1 uM in presence of 32P-ATP by Hotspot assay relative to control; values are per cent of control
T1 sequence (whole entry): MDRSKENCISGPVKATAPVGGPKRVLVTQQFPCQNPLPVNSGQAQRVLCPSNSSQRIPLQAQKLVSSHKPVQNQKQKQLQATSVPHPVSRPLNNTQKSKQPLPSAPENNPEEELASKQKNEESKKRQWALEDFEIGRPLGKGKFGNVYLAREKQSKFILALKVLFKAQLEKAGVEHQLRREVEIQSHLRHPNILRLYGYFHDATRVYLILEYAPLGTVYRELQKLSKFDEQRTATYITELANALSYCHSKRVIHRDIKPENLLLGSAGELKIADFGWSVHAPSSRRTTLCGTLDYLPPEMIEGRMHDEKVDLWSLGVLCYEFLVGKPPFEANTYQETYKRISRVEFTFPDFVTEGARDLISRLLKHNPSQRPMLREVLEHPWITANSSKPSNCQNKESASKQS

[2] = target: Serine/threonine-protein kinase PAK 3 (Homo sapiens) (UniProt O75914); test: Inhibition of human PAK3 using RRRLSFAEPG as substrate at 1 uM in presence of 32P-ATP by Hotspot assay relative to control; values are per cent of control
[3] = target: Mitogen-activated protein kinase kinase kinase kinase 4 (Homo sapiens) (UniProt O95819); test: Inhibition of human HGK/MAP4K4 using myelin basic protein as substrate at 1 uM in presence of 32P-ATP by Hotspot assay relative to control; values are per cent of control
Chain of Mitogen-activated protein kinase kinase kinase kinase 4 (Homo sapiens) (O95819 2-1239 limits assumed): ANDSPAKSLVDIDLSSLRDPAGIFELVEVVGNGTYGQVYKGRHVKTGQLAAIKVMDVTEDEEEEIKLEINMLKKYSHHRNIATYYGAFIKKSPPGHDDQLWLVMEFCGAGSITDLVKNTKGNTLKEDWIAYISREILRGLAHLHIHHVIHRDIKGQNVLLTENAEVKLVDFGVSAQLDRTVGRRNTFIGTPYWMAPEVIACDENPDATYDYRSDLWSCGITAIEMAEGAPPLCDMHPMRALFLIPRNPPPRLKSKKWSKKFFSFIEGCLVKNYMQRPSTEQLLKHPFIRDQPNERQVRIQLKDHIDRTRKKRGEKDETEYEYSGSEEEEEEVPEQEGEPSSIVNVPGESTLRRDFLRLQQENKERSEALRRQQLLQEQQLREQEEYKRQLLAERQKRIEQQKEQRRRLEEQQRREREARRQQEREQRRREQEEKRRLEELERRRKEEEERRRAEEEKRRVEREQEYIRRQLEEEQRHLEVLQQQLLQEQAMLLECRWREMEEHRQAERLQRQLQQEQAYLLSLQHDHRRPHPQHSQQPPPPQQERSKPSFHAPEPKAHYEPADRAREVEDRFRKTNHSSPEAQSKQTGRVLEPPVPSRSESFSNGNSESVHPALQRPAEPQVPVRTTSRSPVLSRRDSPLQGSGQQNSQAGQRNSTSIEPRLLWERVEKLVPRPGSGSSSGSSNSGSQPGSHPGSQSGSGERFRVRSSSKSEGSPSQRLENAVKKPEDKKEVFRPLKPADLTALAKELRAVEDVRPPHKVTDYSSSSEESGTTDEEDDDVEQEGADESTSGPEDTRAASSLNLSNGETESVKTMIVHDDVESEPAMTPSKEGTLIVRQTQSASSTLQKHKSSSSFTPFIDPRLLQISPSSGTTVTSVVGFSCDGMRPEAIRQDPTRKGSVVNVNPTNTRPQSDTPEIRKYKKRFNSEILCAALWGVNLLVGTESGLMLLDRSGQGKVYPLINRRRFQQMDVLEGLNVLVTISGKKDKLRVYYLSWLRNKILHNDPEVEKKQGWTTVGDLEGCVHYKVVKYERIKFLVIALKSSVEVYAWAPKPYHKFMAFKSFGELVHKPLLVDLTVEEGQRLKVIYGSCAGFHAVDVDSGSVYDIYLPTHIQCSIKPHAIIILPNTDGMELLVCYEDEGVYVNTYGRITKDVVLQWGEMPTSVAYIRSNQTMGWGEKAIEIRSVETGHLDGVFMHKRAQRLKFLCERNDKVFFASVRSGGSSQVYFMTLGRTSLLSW

[4] = target: Tyrosine-protein kinase BTK (Homo sapiens) (UniProt Q06187); test: Inhibition of human BTK using poly[Glu:Tyr] (4:1) as substrate at 1 uM in presence of 32P-ATP by Hotspot assay relative to control; values are per cent of control
Chain of Tyrosine-protein kinase BTK (Homo sapiens) (Q06187 whole entry): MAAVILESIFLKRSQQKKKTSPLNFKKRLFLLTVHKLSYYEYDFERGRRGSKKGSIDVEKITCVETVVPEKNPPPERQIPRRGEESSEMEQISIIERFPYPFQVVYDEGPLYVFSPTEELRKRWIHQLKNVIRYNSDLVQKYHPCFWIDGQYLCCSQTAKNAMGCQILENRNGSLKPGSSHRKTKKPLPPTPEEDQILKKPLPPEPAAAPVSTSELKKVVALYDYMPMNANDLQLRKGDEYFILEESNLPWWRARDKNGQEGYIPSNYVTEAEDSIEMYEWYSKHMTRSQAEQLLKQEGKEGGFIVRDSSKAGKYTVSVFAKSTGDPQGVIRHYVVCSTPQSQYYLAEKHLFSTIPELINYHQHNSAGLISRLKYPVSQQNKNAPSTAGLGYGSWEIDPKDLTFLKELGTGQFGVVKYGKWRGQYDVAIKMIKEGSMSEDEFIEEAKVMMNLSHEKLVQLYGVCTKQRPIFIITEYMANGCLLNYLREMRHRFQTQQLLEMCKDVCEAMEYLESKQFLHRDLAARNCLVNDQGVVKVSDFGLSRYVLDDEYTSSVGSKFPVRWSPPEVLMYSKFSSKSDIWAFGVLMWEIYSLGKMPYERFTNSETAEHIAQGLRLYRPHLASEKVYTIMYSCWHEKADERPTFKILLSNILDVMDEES

[5] = target: Mitogen-activated protein kinase 14 (Homo sapiens) (UniProt Q16539); test: Inhibition of human P38a/MAPK14 using myelin basic protein as substrate at 1 uM in presence of 32P-ATP by Hotspot assay relative to control; values are per cent of control
Chain of Mitogen-activated protein kinase 14 (Homo sapiens) (Q16539 whole entry): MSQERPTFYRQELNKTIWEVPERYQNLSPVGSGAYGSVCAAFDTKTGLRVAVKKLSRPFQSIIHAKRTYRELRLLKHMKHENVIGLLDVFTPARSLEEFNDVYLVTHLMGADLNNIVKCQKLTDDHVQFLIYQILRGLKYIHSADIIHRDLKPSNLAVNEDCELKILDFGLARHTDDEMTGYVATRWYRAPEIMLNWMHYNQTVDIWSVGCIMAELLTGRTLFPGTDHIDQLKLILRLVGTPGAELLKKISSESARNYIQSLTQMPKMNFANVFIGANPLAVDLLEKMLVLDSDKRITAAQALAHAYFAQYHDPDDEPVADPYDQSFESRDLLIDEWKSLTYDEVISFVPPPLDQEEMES

[6] = target: T2, Serine/threonine-protein kinase Nek9 (Homo sapiens) (UniProt Q8TD19); test: Inhibition of human NEK9 using myelin basic protein as substrate at 1 uM in presence of 32P-ATP by Hotspot assay relative to control; values are per cent of control
T2 sequence (whole entry): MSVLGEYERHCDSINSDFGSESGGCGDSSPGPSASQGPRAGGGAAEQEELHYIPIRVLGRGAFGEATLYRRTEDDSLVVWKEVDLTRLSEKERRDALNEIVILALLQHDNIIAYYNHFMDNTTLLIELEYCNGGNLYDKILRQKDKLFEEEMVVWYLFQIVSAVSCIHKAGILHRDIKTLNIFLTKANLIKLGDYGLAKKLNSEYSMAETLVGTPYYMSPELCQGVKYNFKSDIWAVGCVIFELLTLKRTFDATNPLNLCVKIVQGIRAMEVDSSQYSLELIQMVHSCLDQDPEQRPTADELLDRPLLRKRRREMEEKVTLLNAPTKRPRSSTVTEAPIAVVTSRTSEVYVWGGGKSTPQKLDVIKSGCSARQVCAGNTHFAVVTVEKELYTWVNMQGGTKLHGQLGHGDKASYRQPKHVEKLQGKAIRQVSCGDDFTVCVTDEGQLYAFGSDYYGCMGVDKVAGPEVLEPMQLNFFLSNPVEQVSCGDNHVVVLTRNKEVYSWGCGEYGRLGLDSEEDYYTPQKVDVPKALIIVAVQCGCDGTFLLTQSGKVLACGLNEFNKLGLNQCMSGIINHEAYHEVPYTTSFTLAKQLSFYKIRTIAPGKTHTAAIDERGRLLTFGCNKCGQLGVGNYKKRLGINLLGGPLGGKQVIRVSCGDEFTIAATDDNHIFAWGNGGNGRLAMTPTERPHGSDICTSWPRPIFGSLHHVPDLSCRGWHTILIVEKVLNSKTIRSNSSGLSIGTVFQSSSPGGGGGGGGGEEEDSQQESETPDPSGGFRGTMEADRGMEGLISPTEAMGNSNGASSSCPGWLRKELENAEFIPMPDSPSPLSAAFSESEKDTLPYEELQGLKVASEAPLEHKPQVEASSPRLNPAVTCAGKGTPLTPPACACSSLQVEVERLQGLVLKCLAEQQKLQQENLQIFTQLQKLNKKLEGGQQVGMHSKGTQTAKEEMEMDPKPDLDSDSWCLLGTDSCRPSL

[7] = target: Ephrin type-A receptor 4 (Homo sapiens) (UniProt P54764); test: Inhibition of human EPHA4 using poly[Glu:Tyr] (4:1) as substrate at 1 uM in presence of 32P-ATP by Hotspot assay relative to control; values are per cent of control
Chain of Ephrin type-A receptor 4 (Homo sapiens) (P54764 whole entry): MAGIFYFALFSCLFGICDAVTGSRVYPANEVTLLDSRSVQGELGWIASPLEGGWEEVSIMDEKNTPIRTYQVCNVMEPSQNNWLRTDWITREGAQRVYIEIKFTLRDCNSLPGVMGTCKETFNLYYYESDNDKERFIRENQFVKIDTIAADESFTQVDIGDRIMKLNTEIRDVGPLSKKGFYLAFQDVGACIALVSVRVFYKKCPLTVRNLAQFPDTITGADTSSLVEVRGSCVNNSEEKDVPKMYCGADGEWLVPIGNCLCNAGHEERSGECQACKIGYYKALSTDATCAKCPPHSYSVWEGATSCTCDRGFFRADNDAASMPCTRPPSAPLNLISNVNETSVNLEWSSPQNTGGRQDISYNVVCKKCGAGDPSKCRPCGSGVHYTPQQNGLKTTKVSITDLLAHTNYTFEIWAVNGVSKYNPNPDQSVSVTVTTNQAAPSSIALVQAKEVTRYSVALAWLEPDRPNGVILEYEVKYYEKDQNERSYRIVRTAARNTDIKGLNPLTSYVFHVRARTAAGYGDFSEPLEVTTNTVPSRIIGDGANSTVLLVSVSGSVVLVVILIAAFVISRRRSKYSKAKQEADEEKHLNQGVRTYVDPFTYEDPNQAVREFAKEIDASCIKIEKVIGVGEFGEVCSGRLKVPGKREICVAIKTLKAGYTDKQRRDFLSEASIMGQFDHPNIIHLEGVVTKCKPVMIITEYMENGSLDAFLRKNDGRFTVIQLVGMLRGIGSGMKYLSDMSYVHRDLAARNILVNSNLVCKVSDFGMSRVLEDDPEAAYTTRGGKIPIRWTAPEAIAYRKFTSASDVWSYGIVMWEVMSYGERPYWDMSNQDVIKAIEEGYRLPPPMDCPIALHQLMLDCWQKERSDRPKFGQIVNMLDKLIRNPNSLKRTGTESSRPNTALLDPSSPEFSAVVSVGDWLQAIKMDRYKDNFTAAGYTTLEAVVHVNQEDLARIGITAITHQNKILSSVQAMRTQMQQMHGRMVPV

[8] = target: Tyrosine-protein kinase ABL2 (Homo sapiens) (UniProt P42684); test: Inhibition of human ABL2/ARG using EAIYAAPFAKKK as substrate at 1 uM in presence of 32P-ATP by Hotspot assay relative to control; values are per cent of control
Chain of Tyrosine-protein kinase ABL2 (Homo sapiens) (P42684 whole entry): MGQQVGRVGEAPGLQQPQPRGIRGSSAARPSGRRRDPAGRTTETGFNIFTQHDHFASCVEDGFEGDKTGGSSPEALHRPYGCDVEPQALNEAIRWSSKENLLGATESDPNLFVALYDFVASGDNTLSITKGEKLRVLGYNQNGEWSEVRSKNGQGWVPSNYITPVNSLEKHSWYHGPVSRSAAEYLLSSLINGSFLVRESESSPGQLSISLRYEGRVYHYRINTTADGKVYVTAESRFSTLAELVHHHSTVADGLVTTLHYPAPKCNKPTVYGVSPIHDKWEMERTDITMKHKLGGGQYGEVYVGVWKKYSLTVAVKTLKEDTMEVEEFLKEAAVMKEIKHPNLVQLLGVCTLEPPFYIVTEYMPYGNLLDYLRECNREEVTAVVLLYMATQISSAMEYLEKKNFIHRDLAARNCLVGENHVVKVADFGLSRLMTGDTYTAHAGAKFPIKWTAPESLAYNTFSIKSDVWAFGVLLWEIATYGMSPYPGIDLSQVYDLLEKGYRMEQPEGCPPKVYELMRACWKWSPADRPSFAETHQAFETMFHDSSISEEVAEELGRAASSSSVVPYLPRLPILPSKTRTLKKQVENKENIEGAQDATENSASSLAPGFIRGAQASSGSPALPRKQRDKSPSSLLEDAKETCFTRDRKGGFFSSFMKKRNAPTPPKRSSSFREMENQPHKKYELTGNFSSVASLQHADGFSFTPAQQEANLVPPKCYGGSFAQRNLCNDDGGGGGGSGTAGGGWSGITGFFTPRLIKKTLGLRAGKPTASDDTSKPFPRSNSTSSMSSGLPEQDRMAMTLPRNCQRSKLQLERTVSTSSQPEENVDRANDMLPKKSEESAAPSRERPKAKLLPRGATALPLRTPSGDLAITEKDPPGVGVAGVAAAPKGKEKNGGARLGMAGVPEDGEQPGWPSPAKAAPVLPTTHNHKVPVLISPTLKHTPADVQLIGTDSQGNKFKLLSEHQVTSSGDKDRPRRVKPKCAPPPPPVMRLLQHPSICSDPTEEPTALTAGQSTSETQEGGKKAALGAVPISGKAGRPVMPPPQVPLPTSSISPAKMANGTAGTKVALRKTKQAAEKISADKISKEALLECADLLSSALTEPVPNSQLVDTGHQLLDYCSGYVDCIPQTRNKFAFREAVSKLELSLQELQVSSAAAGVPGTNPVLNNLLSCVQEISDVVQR

[9] = target: Mitogen-activated protein kinase 1 (Homo sapiens) (UniProt P28482); test: Inhibition of human ERK2/MAPK1 using myelin basic protein as substrate at 1 uM in presence of 32P-ATP by Hotspot assay relative to control; values are per cent of control
[10] = target: Serine/threonine-protein kinase Nek6 (Homo sapiens) (UniProt Q9HC98); test: Inhibition of human NEK6 using casein as substrate at 1 uM in presence of 32P-ATP by Hotspot assay relative to control; values are per cent of control
Chain of Serine/threonine-protein kinase Nek6 (Homo sapiens) (Q9HC98 whole entry): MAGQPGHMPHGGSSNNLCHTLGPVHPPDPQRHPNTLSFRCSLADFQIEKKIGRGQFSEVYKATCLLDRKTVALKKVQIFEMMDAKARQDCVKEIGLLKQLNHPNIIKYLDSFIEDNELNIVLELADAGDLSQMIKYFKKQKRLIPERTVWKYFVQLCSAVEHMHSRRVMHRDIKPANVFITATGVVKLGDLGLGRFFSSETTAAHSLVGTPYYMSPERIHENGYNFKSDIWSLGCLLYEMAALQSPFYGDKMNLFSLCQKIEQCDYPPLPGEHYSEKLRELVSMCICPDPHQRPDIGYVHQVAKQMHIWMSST

## CC(C)S(=O)(=O)c1ccc2nccc(Nc3ccc4scnc4c3)c2c1
[1]
  residual activity: 95.9%
[2]
  residual activity: 97.8%
[3]
  residual activity: 83%
[4]
  residual activity: 30.4%
[5]
  residual activity: 91.5%
[6]
  residual activity: 86.7%
[7]
  residual activity: 70.9%
[8]
  residual activity: 12%
[9]
  residual activity: 94.6%
[10]
  residual activity: 104%

## Cc1cc(-c2cnc(N)c3c(-c4ccc5scnc5c4)csc23)n(C)n1
[1]
  residual activity: 99%
[2]
  residual activity: 96.6%
[3]
  residual activity: 21.2%
[4]
  residual activity: 58%
[5]
  residual activity: 40.9%
[6]
  residual activity: 91%
[7]
  residual activity: 48.9%
[8]
  residual activity: 7.38%
[9]
  residual activity: 109%
[10]
  residual activity: 96%

## CNC(=O)c1ccc2c(c1)ncn2-c1ccc(CC(=O)OC(C)(C)C)cc1
[1]
  residual activity: 101%
[2]
  residual activity: 105%
[3]
  residual activity: 102%
[4]
  residual activity: 79.8%
[5]
  residual activity: 95.8%
[6]
  residual activity: 102%
[7]
  residual activity: 95.5%
[8]
  residual activity: 78.2%
[9]
  residual activity: 99.8%
[10]
  residual activity: 104%

From ChEMBL document CHEMBL5649166, “RIP3 induces apoptosis independent of pronecrotic kinase activity” (Mol Cell, 2014)
